ChEMBL document CHEMBL4613308, “Screen of Unfocused Libraries Identified Compounds with Direct or Synergistic Antibacterial Activity” (ACS Med Chem Lett, 2020)
≈ marks a conversion by molar mass, not a printed value.

Legend:
Escherichia coli [1] = assay: Antibacterial activity against Escherichia coli CCUG assessed as bacterial growth inhibition by agar diffusion assay; type: functional
Klebsiella pneumoniae [2] = assay: Antibacterial activity against Klebsiella pneumoniae ATCC 13833 assessed as bacterial growth inhibition by agar diffusion assay; type: functional
Pseudomonas aeruginosa [3] = assay: Antibacterial activity against Pseudomonas aeruginosa ATCC 27853 assessed as bacterial growth inhibition by agar diffusion assay; type: functional
Acinetobacter baumannii [4] = assay: Antibacterial activity against Acinetobacter baumannii ATCC 17978 assessed as bacterial growth inhibition by agar diffusion assay; type: functional
Acinetobacter baumannii [5] = assay: Synergistic antibacterial activity against Acinetobacter baumannii ATCC 17978 in presence of 0.5 times MIC of colistin by microdilution broth method; type: functional
Escherichia coli [6] = assay: Synergistic antibacterial activity against Escherichia coli CCUG in presence of 0.5 times MIC of colistin by microdilution broth method; type: functional
Klebsiella pneumoniae [7] = assay: Synergistic antibacterial activity against Klebsiella pneumoniae ATCC 13833 in presence of 0.5 times MIC of colistin by microdilution broth method; type: functional
Acinetobacter baumannii [8] = assay: Potentiation of colistin-induced antibacterial activity against Acinetobacter baumannii ATCC 17978 assessed as fold reduction in colistin MIC by microdilution broth method relative to colistin MIC; type: functional
Escherichia coli [9] = assay: Potentiation of colistin-induced antibacterial activity against Escherichia coli CCUG assessed as fold reduction in colistin MIC in by microdilution broth method relative to colistin MIC; type: functional
Klebsiella pneumoniae [10] = assay: Potentiation of colistin-induced antibacterial activity against Klebsiella pneumoniae ATCC 13833 assessed as fold reduction in colistin MIC by microdilution broth method relative to colistin MIC; type: functional
Pseudomonas aeruginosa [11] = assay: Synergistic antibacterial activity against Pseudomonas aeruginosa ATCC 27853 in presence of 0.5 times MIC of colistin by microdilution broth method; type: functional
Acinetobacter baumannii [12] = assay: Synergistic antibacterial activity against Acinetobacter baumannii ATCC 17978 assessed as fractional inhibitory concentration index in presence of colistin by Checkerboard assay; type: functional
Pseudomonas aeruginosa [13] = assay: Synergistic antibacterial activity against Pseudomonas aeruginosa ATCC 27853 assessed as fractional inhibitory concentration index in presence of colistin by Checkerboard assay; type: functional
Pseudomonas aeruginosa [14] = assay: Potentiation of colistin-induced antibacterial activity against Pseudomonas aeruginosa ATCC 27853 assessed as fold reduction in colistin MIC by microdilution broth method relative to colistin MIC; type: functional
Klebsiella pneumoniae [15] = assay: Synergistic antibacterial activity against colistin-resistant Klebsiella pneumoniae SI-004Bo clinical isolate in presence of 2 ug/ml colistin by microdilution broth method (reference value: 64 ug/ml); type: functional
Klebsiella pneumoniae [16] = assay: Synergistic antibacterial activity against colistin-resistant Klebsiella pneumoniae SI-081R clinical isolate in presence of 2 ug/ml colistin by microdilution broth method (reference value: 256 ug/ml); type: functional
Acinetobacter baumannii [17] = assay: Synergistic antibacterial activity against multidrug-resistant Acinetobacter baumannii N50 in presence of 2 ug/ml colistin by microdilution broth method; type: functional
HeLa = assay: Cytotoxicity against human HeLa cells assessed as reduction in cell viability assay by CellTox-Green assay; type: cell-based
Bacillus spizizenii = assay: Antibacterial activity against Bacillus subtilis ATCC 6633 assessed as bacterial growth inhibition by agar diffusion assay; type: functional
Enterococcus faecalis = assay: Antibacterial activity against Enterococcus faecalis ATCC 29212 assessed as bacterial growth inhibition by agar diffusion assay; type: functional
Staphylococcus aureus = assay: Antibacterial activity against Staphylococcus aureus ATCC 25923 assessed as bacterial growth inhibition by agar diffusion assay; type: functional
Streptococcus pyogenes = assay: Antibacterial activity against Streptococcus pyogenes ATCC 12344 assessed as bacterial growth inhibition by agar diffusion assay; type: functional
Enterobacter cloacae [18] = assay: Antibacterial activity against multidrug-resistant Enterobacter cloacae VA 417/02 clinical isolate assessed as bacterial growth inhibition by agar diffusion assay; type: functional
Enterobacter cloacae [19] = assay: Antibacterial activity against multidrug-resistant Enterobacter cloacae Z19 clinical isolate assessed as bacterial growth inhibition by agar diffusion assay; type: functional
Escherichia coli [20] = assay: Antibacterial activity against multidrug-resistant Escherichia coli Z25 clinical isolate assessed as bacterial growth inhibition by agar diffusion assay; type: functional
Pseudomonas aeruginosa [21] = assay: Antibacterial activity against multidrug-resistant Pseudomonas aeruginosa VR-143/97 clinical isolate assessed as bacterial growth inhibition by agar diffusion assay; type: functional
Acinetobacter baumannii [22] = assay: Antibacterial activity against Acinetobacter baumannii AC-54/97 clinical isolate assessed as bacterial growth inhibition by agar diffusion assay; type: functional

SMILES	MIC (Escherichia coli [1]) [µg/mL]	MIC (Klebsiella pneumoniae [2]) [µg/mL]	MIC (Pseudomonas aeruginosa [3]) [µg/mL]	MIC (Acinetobacter baumannii [4]) [µg/mL]	MIC (Acinetobacter baumannii [5]) [µg/mL]	MIC (Escherichia coli [6]) [µg/mL]	MIC (Klebsiella pneumoniae [7]) [µg/mL]	log2FC (Acinetobacter baumannii [8])	log2FC (Escherichia coli [9])	log2FC (Klebsiella pneumoniae [10])	MIC (Bacillus spizizenii) [µg/mL]	MIC (Enterococcus faecalis) [µg/mL]	MIC (Staphylococcus aureus) [µg/mL]	MIC (Streptococcus pyogenes) [µg/mL]	MIC (Enterobacter cloacae [18]) [µg/mL]	MIC (Enterobacter cloacae [19]) [µg/mL]	MIC (Escherichia coli [20]) [µg/mL]	MIC (Pseudomonas aeruginosa [21]) [µg/mL]	MIC (Acinetobacter baumannii [22]) [µg/mL]	also measured
CCCCCCc1ccc(O)cc1OCCCCCCCCCCC(=O)NCCO	> 512	> 512	> 512	> 512	16	4	8	5	7	6										
CCCCCCc1ccc(O)cc1OCCCCCC(=O)NCCO	> 512	> 512	> 512	> 512	8			6												
CCCCCc1cc(O)cc(OCCCCCCCCCCCC(=O)NCCO)c1	> 512	> 512	> 512	> 512	4	8	8	7	6	6										MIC (Pseudomonas aeruginosa [11]): 4 µg/mL; fractional inhibitory concentration index (FICI) (Acinetobacter baumannii [12]): 0.31; fractional inhibitory concentration index (FICI) (Pseudomonas aeruginosa [13]): 0.41; log2FC (Pseudomonas aeruginosa [14]): 7; MIC (Klebsiella pneumoniae [15]): > 64 µg/mL; MIC (Klebsiella pneumoniae [16]): > 64 µg/mL; MIC (Acinetobacter baumannii [17]): 4 µg/mL; IC50 (HeLa): 18 µg/mL (≈ 42.7 µM)
CCCCCCc1ccc(OCCCCCCCC(=O)NCCO)cc1O	> 512	> 512	> 512	> 512	16	8	4	5	6	7										
CCOC(=O)c1c(O)nc2c(C)cccc2c1O	> 512	> 512	> 512	> 512	64	64	16	3	3	5										
CCCCCc1cc(O)cc(OCCCCCCCCCCC(=O)NC(CO)CO)c1	> 512	> 512	> 512	> 512	4	8	8	7	6	6										
CCOC(=O)c1cn(CC)c2cc(N)c(F)cc2c1=O	32 (≈ 115 µM)	128 (≈ 460 µM)	> 256	256 (≈ 920 µM)							32 (≈ 115 µM)	256 (≈ 920 µM)	256 (≈ 920 µM)	64 (≈ 230 µM)	> 256	> 256	> 256	> 256	> 256	
CC(C)(C)n1cc(C(=O)O)c(=O)c2cc(F)c(-c3ccc(F)cc3F)cc21	16 (≈ 42.6 µM)	4 (≈ 10.7 µM)	64 (≈ 171 µM)	8 (≈ 21.3 µM)							≤ 0.12	2 (≈ 5.33 µM)	2 (≈ 5.33 µM)	1 (≈ 2.66 µM)	4 (≈ 10.7 µM)	> 256	> 256	> 256	> 256	
O=C(O)c1cn(C2CC2)c2cc(Br)c(F)cc2c1=O	0.25 (≈ 0.767 µM)	≤ 0.12	8 (≈ 24.5 µM)	0.5 (≈ 1.53 µM)							≤ 0.12	4 (≈ 12.3 µM)	4 (≈ 12.3 µM)	4 (≈ 12.3 µM)	0.25 (≈ 0.767 µM)	> 256	> 256	256 (≈ 785 µM)	256 (≈ 785 µM)	
CC(C)c1ccc2c(c1)c(O)c(C(C)C)c(=O)n2CC(C)(C)C	> 512	> 512	> 512	> 512	32	32	64	4	4	3										
CCOC(=O)c1cn2c3c(cccc3c1=O)OCC2CC (configuration not stated)	> 256	128 (≈ 446 µM)	> 256	256 (≈ 891 µM)							128 (≈ 446 µM)	256 (≈ 891 µM)	> 256	> 256	> 256	> 256	> 256	> 256	> 256	
CC(C)(C)n1cc(C(=O)O)c(=O)c2cc(F)c(Sc3ccccc3)cc21	16 (≈ 43.1 µM)	8 (≈ 21.5 µM)	256 (≈ 689 µM)	32 (≈ 86.2 µM)							≤ 0.12	2 (≈ 5.38 µM)	2 (≈ 5.38 µM)	1 (≈ 2.69 µM)	16 (≈ 43.1 µM)	256 (≈ 689 µM)	> 256	128 (≈ 345 µM)	> 256	
COc1ccc(-c2cc3c(cc2F)c(=O)c(C(=O)O)cn3C(C)(C)C)cc1	> 256	16 (≈ 43.3 µM)	> 256	16 (≈ 43.3 µM)							≤ 0.12	0.5 (≈ 1.35 µM)	0.25 (≈ 0.677 µM)	≤ 0.12	128 (≈ 347 µM)	> 256	> 256	> 256	> 256	
CC(C)(C)n1cc(C(=O)O)c(=O)c2cc(F)c(-c3cccnc3)cc21	2 (≈ 5.88 µM)	0.25 (≈ 0.735 µM)	4 (≈ 11.8 µM)	0.5 (≈ 1.47 µM)							≤ 0.12	0.5 (≈ 1.47 µM)	≤ 0.12	≤ 0.12	0.5 (≈ 1.47 µM)	256 (≈ 752 µM)	256 (≈ 752 µM)	64 (≈ 188 µM)	64 (≈ 188 µM)	
CCCCCc1cc(OC)cc(OCCCCCCCC(=O)NCCO)c1	> 512	> 512	> 512	> 512	4	4	8	7	7	6										MIC (Klebsiella pneumoniae [15]): > 64 µg/mL; MIC (Klebsiella pneumoniae [16]): 18 µg/mL; MIC (Acinetobacter baumannii [17]): 8 µg/mL; IC50 (HeLa): > 20 µg/mL
Cc1c(C(=O)N(C)CCN(C)C)nn(-c2ccc(Cl)cc2)c1-n1cccc1	> 512	> 512	> 512	> 512	16	64	32	5	3	4										
O=C(NCc1ccc2c(c1)OCO2)c1cnn(-c2ccccc2)c1-n1cccc1	> 512	> 512	> 512	> 512	32	64	64	4	3	3										fractional inhibitory concentration index (FICI) (Acinetobacter baumannii [12]): 0.38; MIC (Klebsiella pneumoniae [15]): > 64 µg/mL; MIC (Klebsiella pneumoniae [16]): > 64 µg/mL; MIC (Acinetobacter baumannii [17]): 32 µg/mL; IC50 (HeLa): > 60 µg/mL
CC(C)(C)n1cc(C(=O)O)c(=O)c2cc(F)c(Br)cc21	8 (≈ 23.4 µM)	1 (≈ 2.92 µM)	32 (≈ 93.5 µM)	8 (≈ 23.4 µM)							≤ 0.12	2 (≈ 5.85 µM)	8 (≈ 23.4 µM)	8 (≈ 23.4 µM)	2 (≈ 5.85 µM)	> 256	> 256	> 256	> 256	
CCCCCCC(C)(C)c1cc(O)cc(OCCCCCCCC(=O)NCCO)c1	> 512	> 512	> 512	> 512	4	2	4	7	8	7										
